{"source": "patent US10232013B2", "about": "“Use of an antimicrobial peptide TP4 in treating a cancer” (Academia Sinica, priority 2016, dated 2019)", "key": {"MB231 (MDA-MB231) cells": {"tested_on": "MB231 (MDA-MB231) cells", "assay": "MTS cell viability assay, MB231", "format": "cell-based, human", "conditions": "mean±SD", "description": "(§1) Cell-lines used in this study were purchased from the Bioresource Collection and Research Center (BCRC) in and the cells were cultured by the standard cell culture procedures and conditions provided by the BCRC. MB231 (BCRC 60425), MB453 (BCRC 60429), and HDF cells were cultured as previously described by Ting et al. MCF7 […] cells were maintained in α-MEM medium (ThermoFisher Scientific) supplemented with 2 mM L-glutamine, 10% FBS, 0.1 mM non-essential amino acids, 1 mM sodium pyruvate, and antibiotics (100 U mL^−1 penicillin G and […] streptomycin). M10 (BCRC 60197) cells were maintained in α-MEM medium (ThermoFisher Scientific) supplemented with 10% FBS and antibiotics. With the exception of MB231 and MB453, all cells were cultured at 37° C. with 5% CO2. For the cell viability and transfection assay, 1×10^4 cells [5×10^3 M10 cells were seeded and cultured for 48 h to allow the cells sufficient time for attachment] were seeded into the wells of a 96-well plate and cultured overnight. For the transfection assays, cells were transfected with 0.1-0.4 μg FOSB/FOSAB expression plasmid (Origene Technology Inc.) and cell viability was determined after 72 h. The transfection efficiencies (number of cells expressing eGFP/all cells) of the MB231 transfection assays were determined by observing ten randomly selected fields (from three independent transfections) of control GFP plasmid transfections under an inverted microscope (Olympus, IX71) coupled to a digital camera (Olympus DP80), using an […] (LCPlanFI 20×/0.40 Ph1). CellSens standard software (Olympus) was used for image acquisition. During the drug treatment assay, inhibitors (PD98059, BAPTA-AM, and AlP II) were added 30 min prior to TP4, and cell viability was determined at indicated time-points. Transfection was performed using LipofectAMINE™ 3000 (ThermoFisher Scientific), according to the manufacturer's recommendations. Knock-down cells were generated by transducing MB231 cells with pre-synthesized FOSB (or control) shRNA lentiviral particles (Santa Cruz Biotechnology), and selecting puromycin-resistant cells in accordance with the manufacturer's standard protocol. MB231 or M10 cells stably expressing eGFP or mOrange2 were generated through transfection with peGFP-puromycin or pmOrange2-C1 plasmid, followed by puromycin (5 μg mL^−1) or G418 (500 μg mL^−1) selection as described above.\n(§2) Cell viability was quantitatively analyzed using the CellTiter-Glo® Luminescent Cell Viability Assay kit (ATP assay) and CellTiter 96® AQueous Non-Radioactive Cell Proliferation Assay kit (MTS assay) (Promega) in accordance with the manufacturer's protocol. For MTS assay, 1×10^4 cells were seeded into the wells of a 96-well plate and cultured overnight [5×10^3 M10 cells were seeded and cultured for 48 h to enable sufficient well attachment]. Cells were subsequently treated with different doses of TP4 (2.5-20 μg mL^−1) and harvested at the indicated time-points (3-24 h). Reaction mixtures (20 μL: MTS+PMS, using a ratio 20:1) were directly added to the cells, and the plates were incubated for 3 h at 37° C. Absorbance at 490 nm is directly proportional to the number of living cells in culture and was measured using a photometer (SpectraMax® i3, Molecular Devices). ATP assay was performed as previously described by Ting et al. Lactate dehydrogenase (LDH) assays were performed by quantitatively measuring cell lysis with a Cytotoxicity Detection Kit^PLUS (LDH) (Roche) in accordance with the manufacturer's protocol. The LDH standard was purchased from Cayman Chemical. Briefly, 1×10^4 cells were seeded into the wells of a 96-well plate and cultured overnight. Culture media were replaced with fresh medium containing 1% FBS and cells were subsequently treated with different doses of TP4 (2.5-20 μg mL^−1). Supernatants were harvested at 3 h. […]"}, "MB453 (MDA-MB453) cells": {"tested_on": "MB453 (MDA-MB453) cells", "assay": "MTS cell viability assay, MB453", "format": "cell-based, human", "conditions": "mean±SD", "description": "as §1, §2"}}, "note": "Marks after values point to notes of the source that are not given here. Where no end group is shown, it is not given here."}
{"sequence": "FIHHIIGGLFSAGKAIHRLIRRRRR [TP4, tilapia piscidin 4]", "values": [{"measurement": "Cellular toxicity (cell viability), MTS assay", "setting": "MB231 (MDA-MB231) cells; MB231, TP4 2.5 μg/mL, 3 h", "result": "95.34 ± 5.56^a"}, {"measurement": "Cellular toxicity (cell viability), MTS assay", "setting": "MB231 (MDA-MB231) cells; MB231, TP4 2.5 μg/mL, 6 h", "result": "95.93 ± 8.86^a"}, {"measurement": "Cellular toxicity (cell viability), MTS assay", "setting": "MB231 (MDA-MB231) cells; MB231, TP4 2.5 μg/mL, 12 h", "result": "87.60 ± 12.28^c"}, {"measurement": "Cellular toxicity (cell viability), MTS assay", "setting": "MB231 (MDA-MB231) cells; MB231, TP4 2.5 μg/mL, 24 h", "result": "87.01 ± 9.69^c"}, {"measurement": "Cellular toxicity (cell viability), MTS assay", "setting": "MB231 (MDA-MB231) cells; MB231, TP4 5.0 μg/mL, 3 h", "result": "90.55 ± 10.57^a"}, {"measurement": "Cellular toxicity (cell viability), MTS assay", "setting": "MB231 (MDA-MB231) cells; MB231, TP4 5.0 μg/mL, 6 h", "result": "82.30 ± 6.40^d"}, {"measurement": "Cellular toxicity (cell viability), MTS assay", "setting": "MB231 (MDA-MB231) cells; MB231, TP4 5.0 μg/mL, 12 h", "result": "79.00 ± 9.48^d"}, {"measurement": "Cellular toxicity (cell viability), MTS assay", "setting": "MB231 (MDA-MB231) cells; MB231, TP4 5.0 μg/mL, 24 h", "result": "71.69 ± 6.84^d"}, {"measurement": "Cellular toxicity (cell viability), MTS assay", "setting": "MB231 (MDA-MB231) cells; MB231, TP4 10.0 μg/mL, 3 h", "result": "75.01 ± 11.29^d"}, {"measurement": "Cellular toxicity (cell viability), MTS assay", "setting": "MB231 (MDA-MB231) cells; MB231, TP4 10.0 μg/mL, 6 h", "result": "65.28 ± 6.61^d"}, {"measurement": "Cellular toxicity (cell viability), MTS assay", "setting": "MB231 (MDA-MB231) cells; MB231, TP4 10.0 μg/mL, 12 h", "result": "61.63 ± 11.38^d"}, {"measurement": "Cellular toxicity (cell viability), MTS assay", "setting": "MB231 (MDA-MB231) cells; MB231, TP4 10.0 μg/mL, 24 h", "result": "57.98 ± 6.62^d"}, {"measurement": "Cellular toxicity (cell viability), MTS assay", "setting": "MB231 (MDA-MB231) cells; MB231, TP4 15.0 μg/mL, 3 h", "result": "52.48 ± 11.16^d"}, {"measurement": "Cellular toxicity (cell viability), MTS assay", "setting": "MB231 (MDA-MB231) cells; MB231, TP4 15.0 μg/mL, 6 h", "result": "42.59 ± 10.14^d"}, {"measurement": "Cellular toxicity (cell viability), MTS assay", "setting": "MB231 (MDA-MB231) cells; MB231, TP4 15.0 μg/mL, 12 h", "result": "38.31 ± 7.26^d"}, {"measurement": "Cellular toxicity (cell viability), MTS assay", "setting": "MB231 (MDA-MB231) cells; MB231, TP4 15.0 μg/mL, 24 h", "result": "29.78 ± 4.79^d"}, {"measurement": "Cellular toxicity (cell viability), MTS assay", "setting": "MB231 (MDA-MB231) cells; MB231, TP4 20.0 μg/mL, 3 h", "result": "30.57 ± 4.64^d"}, {"measurement": "Cellular toxicity (cell viability), MTS assay", "setting": "MB231 (MDA-MB231) cells; MB231, TP4 20.0 μg/mL, 6 h", "result": "26.65 ± 7.16^d"}, {"measurement": "Cellular toxicity (cell viability), MTS assay", "setting": "MB231 (MDA-MB231) cells; MB231, TP4 20.0 μg/mL, 12 h", "result": "19.31 ± 5.73^d"}, {"measurement": "Cellular toxicity (cell viability), MTS assay", "setting": "MB231 (MDA-MB231) cells; MB231, TP4 20.0 μg/mL, 24 h", "result": "16.19 ± 4.15^d"}, {"measurement": "Cellular toxicity (cell viability), MTS assay", "setting": "MB453 (MDA-MB453) cells; MB453, TP4 2.5 μg/mL, 3 h", "result": "93.75 ± 4.33^d"}, {"measurement": "Cellular toxicity (cell viability), MTS assay", "setting": "MB453 (MDA-MB453) cells; MB453, TP4 2.5 μg/mL, 6 h", "result": "86.51 ± 4.19^d"}, {"measurement": "Cellular toxicity (cell viability), MTS assay", "setting": "MB453 (MDA-MB453) cells; MB453, TP4 2.5 μg/mL, 12 h", "result": "92.21 ± 6.61^d"}, {"measurement": "Cellular toxicity (cell viability), MTS assay", "setting": "MB453 (MDA-MB453) cells; MB453, TP4 2.5 μg/mL, 24 h", "result": "87.84 ± 4.75^d"}, {"measurement": "Cellular toxicity (cell viability), MTS assay", "setting": "MB453 (MDA-MB453) cells; MB453, TP4 5.0 μg/mL, 3 h", "result": "91.50 ± 4.32^d"}, {"measurement": "Cellular toxicity (cell viability), MTS assay", "setting": "MB453 (MDA-MB453) cells; MB453, TP4 5.0 μg/mL, 6 h", "result": "76.46 ± 6.25^d"}, {"measurement": "Cellular toxicity (cell viability), MTS assay", "setting": "MB453 (MDA-MB453) cells; MB453, TP4 5.0 μg/mL, 12 h", "result": "80.18 ± 5.41^d"}, {"measurement": "Cellular toxicity (cell viability), MTS assay", "setting": "MB453 (MDA-MB453) cells; MB453, TP4 5.0 μg/mL, 24 h", "result": "87.00 ± 4.16^d"}, {"measurement": "Cellular toxicity (cell viability), MTS assay", "setting": "MB453 (MDA-MB453) cells; MB453, TP4 10.0 μg/mL, 3 h", "result": "77.82 ± 4.33^d"}, {"measurement": "Cellular toxicity (cell viability), MTS assay", "setting": "MB453 (MDA-MB453) cells; MB453, TP4 10.0 μg/mL, 6 h", "result": "58.58 ± 5.43^d"}, {"measurement": "Cellular toxicity (cell viability), MTS assay", "setting": "MB453 (MDA-MB453) cells; MB453, TP4 10.0 μg/mL, 12 h", "result": "62.25 ± 10.74^d"}, {"measurement": "Cellular toxicity (cell viability), MTS assay", "setting": "MB453 (MDA-MB453) cells; MB453, TP4 10.0 μg/mL, 24 h", "result": "77.24 ± 4.07^d"}, {"measurement": "Cellular toxicity (cell viability), MTS assay", "setting": "MB453 (MDA-MB453) cells; MB453, TP4 15.0 μg/mL, 3 h", "result": "53.12 ± 10.90^d"}, {"measurement": "Cellular toxicity (cell viability), MTS assay", "setting": "MB453 (MDA-MB453) cells; MB453, TP4 15.0 μg/mL, 6 h", "result": "27.09 ± 2.54^d"}, {"measurement": "Cellular toxicity (cell viability), MTS assay", "setting": "MB453 (MDA-MB453) cells; MB453, TP4 15.0 μg/mL, 12 h", "result": "27.32 ± 5.51^d"}, {"measurement": "Cellular toxicity (cell viability), MTS assay", "setting": "MB453 (MDA-MB453) cells; MB453, TP4 15.0 μg/mL, 24 h", "result": "58.93 ± 2.80^d"}, {"measurement": "Cellular toxicity (cell viability), MTS assay", "setting": "MB453 (MDA-MB453) cells; MB453, TP4 20.0 μg/mL, 3 h", "result": "36.33 ± 5067^d"}, {"measurement": "Cellular toxicity (cell viability), MTS assay", "setting": "MB453 (MDA-MB453) cells; MB453, TP4 20.0 μg/mL, 6 h", "result": "18.25 ± 1.80^d"}, {"measurement": "Cellular toxicity (cell viability), MTS assay", "setting": "MB453 (MDA-MB453) cells; MB453, TP4 20.0 μg/mL, 12 h", "result": "15.02 ± 4.28^d"}, {"measurement": "Cellular toxicity (cell viability), MTS assay", "setting": "MB453 (MDA-MB453) cells; MB453, TP4 20.0 μg/mL, 24 h", "result": "40.15 ± 2.66^d"}]}
